Results reported in patent US9987256B2, “CFTR corrector for the treatment of genetic disorders affecting striated muscle” (UNIVERSITA' DEGLI STUDI DI PADOVA, priority 2012, dated 2018).
Substitutions are numbered along the chain they refer to. Where a SMILES comes first, the peptide text is derived from it. The star is where a group is joined. Cbz = O=C(OCc1ccccc1)*

Experiments:
[1] = target: T1, R98H mutant of alpha-sarcoglycan (Homo sapiens, UniProt Q16586, R98H); assay: Western blot rescue of R98H mutant of alpha-sarcoglycan in HEK293 cell model; assay type: cell-based; conditions: FIG. 1; HEK293, 24 hours; C 5 μM, B 10 μM, E 10 μM, F 10 μM, A 2 μM, D 10 μM; relative to R98H cells treated with DMSO
T1 construct: expressed in transfected cells; host or cells: HEK293
T1 sequence (Q16586 24-387 R98H): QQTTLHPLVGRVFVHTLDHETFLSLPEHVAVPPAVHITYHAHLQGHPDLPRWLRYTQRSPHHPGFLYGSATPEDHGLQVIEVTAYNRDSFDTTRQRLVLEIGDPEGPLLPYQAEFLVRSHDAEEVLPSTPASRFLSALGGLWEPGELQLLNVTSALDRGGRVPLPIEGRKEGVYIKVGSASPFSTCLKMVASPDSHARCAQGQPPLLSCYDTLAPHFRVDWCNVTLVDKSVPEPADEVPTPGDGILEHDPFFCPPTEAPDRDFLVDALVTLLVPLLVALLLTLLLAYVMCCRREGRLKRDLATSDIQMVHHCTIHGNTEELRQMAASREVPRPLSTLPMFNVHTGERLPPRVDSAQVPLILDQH
Experimental: HEK293 cells expressing different α-SG mutants have been treated with the Compounds A, B, C, D, E, F, H, I, Q, R, S and T according to protocols developed in CF studies [Loo and Clarke 2011; Becq et al 2011, Pedemonte et al 2005; Wang et al 2006]. Concentration and time-dependent recovery of treated mutants have been evaluated by Western blotting. The proteasome inhibitor MG132, at the concentration of 10 μM, or DMSO at 1‰ concentration, have been used as positive and negative control, respectively.
In FIG. 1 the result obtained by treating cells expressing the R98H mutant of α-SG for 24 hours with Compound C 5 μM, Compound B 10 μM, Compound E 10 μM, Compound F 10 μM, Compound A 2 μM, Compound D 10 μM are shown. At the end of treatments, cells were lysed and total proteins resolved by SDS-PAGE. Western blotting has been performed by using α-SG specific antibody and β-actin specific antibody, used to normalize loaded proteins (in FIG. 1, upper panel, a representative experiment is shown). The expression of α-SG in different samples has been determined by densitometric analysis of the western blotting experiments and indicated as percentage of the protein present in cells expressing the R98H mutant treated with DMSO (negative control).
In FIG. 4 the result obtained by treating cells expressing the R98H mutant of α-SG for 24 hours with either Compound H 15 μM, Compound I 10 μM, Compound T 15 μM, Compound A 2 μM, or DMSO at 1‰ concentration, used as negative control, are shown. Cells expressing the wild type form of α-sarcoglycan have been used for comparison. At the end of treatments, cells were lysed and total proteins resolved by SDS-PAGE. Western blotting has been performed by using α-SG specific antibody and β-actin specific antibody, used to normalize loaded proteins (in upper panel of FIG. 4, a representative experiment is shown). The expression of α-SG in different samples has been determined by densitometric analysis of the western blotting experiments and indicated as percentage of the protein present in cells expressing the wild type form of α-sarcoglycan. […] The compounds tested induced the recovery of the R98H mutant to levels that in some cases were even greater than those present in HEK cells expressing the wild type protein.
(§1) In FIG. 5 the result obtained by treating cells expressing the R98H mutant of α-SG for 24 hours with either increasing concentration of Compound R (1, 2.5, 5 μM) or DMSO at 1‰ concentration, used as negative control, are shown. Cells expressing the wild type form of α-sarcoglycan have been used for comparison. At the end of treatments, cells were lysed and total proteins resolved by SDS-PAGE. Western blotting has been performed by using α-SG specific antibody and β-actin specific antibody, used to normalize loaded proteins (in upper panel of FIG. 5, a representative experiment is shown). The expression of α-SG in different samples has been determined by densitometric analysis of western blotting experiments and indicated as percentage of the protein present in cells expressing the wild type form of α-sarcoglycan.
as §1, with “6” for “5”, “Q (5, 10 μM), increasing concentration of Compound S (10, 15” for “R (1, 2.5, 5”, “1% o” for “1‰”, “6,” for “5,”

R164H mutant of SERCA1 = target: T2, R164H mutant of SERCA1 (Bos taurus, UniProt Q0VCY0, R164H); assay: Western blot rescue of R164H mutant of SERCA1 in HEK293 cells; assay type: cell-based, bovine; conditions: FIG. 3; HEK293, 24 hours; C 5 μM, B 10 μM, E 10 μM, F 10 μM, A 2 μM, D 10 μM; relative to wild type
T2 construct: expressed in transfected cells; host or cells: HEK 293
T2 sequence (Q0VCY0 whole entry R164H): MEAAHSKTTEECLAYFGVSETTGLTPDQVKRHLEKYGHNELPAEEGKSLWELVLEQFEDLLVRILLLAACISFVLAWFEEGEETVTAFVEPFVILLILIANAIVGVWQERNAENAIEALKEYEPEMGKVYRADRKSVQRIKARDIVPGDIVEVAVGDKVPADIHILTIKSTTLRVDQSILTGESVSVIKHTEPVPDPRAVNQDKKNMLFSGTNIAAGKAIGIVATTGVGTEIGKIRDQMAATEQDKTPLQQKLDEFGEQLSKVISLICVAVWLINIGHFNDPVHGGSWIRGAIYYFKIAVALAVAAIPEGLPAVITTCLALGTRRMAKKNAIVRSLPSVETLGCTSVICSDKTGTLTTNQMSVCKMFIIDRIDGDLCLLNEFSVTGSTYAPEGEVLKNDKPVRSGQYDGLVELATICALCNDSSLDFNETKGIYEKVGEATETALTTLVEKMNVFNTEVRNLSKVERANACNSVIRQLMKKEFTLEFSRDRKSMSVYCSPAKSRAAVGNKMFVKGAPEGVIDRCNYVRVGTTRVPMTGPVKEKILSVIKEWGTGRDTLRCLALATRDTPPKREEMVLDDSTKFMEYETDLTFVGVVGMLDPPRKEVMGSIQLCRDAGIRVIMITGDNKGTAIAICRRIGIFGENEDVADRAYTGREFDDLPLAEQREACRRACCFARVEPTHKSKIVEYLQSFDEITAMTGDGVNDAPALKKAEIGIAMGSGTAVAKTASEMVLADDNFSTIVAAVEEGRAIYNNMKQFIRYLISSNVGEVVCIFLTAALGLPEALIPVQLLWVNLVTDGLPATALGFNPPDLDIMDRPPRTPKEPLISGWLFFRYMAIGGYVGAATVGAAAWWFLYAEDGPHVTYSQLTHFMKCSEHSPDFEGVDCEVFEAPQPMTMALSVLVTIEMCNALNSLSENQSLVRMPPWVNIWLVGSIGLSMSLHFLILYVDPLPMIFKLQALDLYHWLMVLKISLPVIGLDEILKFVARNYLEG
Experimental: In FIG. 3 are reported the results obtained with HEK 293 cells expressing the R164H mutant of SERCA1 treated for 24 hours with either Compound C 5 μM, Compound B 10 μM, Compound E 10 μM, compound F 10 μM, Compound A 2 μM, compound D 10 μM, MG132 (proteasome inhibitor) 10 μM, used as positive control or the vehicle DMSO at 1‰ concentration, used as negative control. At the end of treatments, cells were lysed and total protein resolved by SDS-PAGE. Western blotting analysis has been performed by using SERCA1 specific antibody and β-actin specific antibody, to normalize loaded proteins. In the upper panel of FIG. 3 is reported a representative Western blotting experiment. The expression of SERCA1 in different samples has been determined by densitometric analysis and indicated as percentage of SERCA 1 content present in wild type expressing cells treated with DMSO.
In FIG. 10 is reported the content of SERCA1 protein present in HEK 293 cells transfected with the R164H mutant of SERCA1 and treated for 24 hours with either Compound H 15 μM, Compound I 10 μM, compound Q 10 μM, Compound R 5 μM, Compound S 15 μM, Compound T 15 μM or the vehicle DMSO at 1‰ concentration, used as negative control. Cells expressing the wild type form of SERCA1 have also been used for comparison. At the end of treatments, cells were lysed and total protein resolved by SDS-PAGE. Western blotting analysis has been performed by using SERCA1 specific antibody and β-actin specific antibody, to normalize loaded proteins. The expression of SERCA1 in different samples has been determined by densitometric analysis and indicated as percentage of SERCA 1 content present in wild type expressing cells. The graph of FIG. 10 reports the average values (+/− standard error) of at least three independent experiments.

D307H CASQ2 mutant = conditions: CASQ2 D307H/D307H knock in mouse, systemic administration; cited from earlier work
[2] = target: T3, V247M mutant of alpha-sarcoglycan (Homo sapiens, UniProt Q16586, V247M); assay: Confocal immunofluorescence, membrane localization of V247M alpha-sarcoglycan in HEK293 cells; assay type: cell-based; conditions: FIG. 2; HEK293, 24 hours; E 10 μM, D 10 μM, MG132 positive control; not permeabilized cells
T3 construct: expressed in transfected cells; host or cells: HEK 293
T3 sequence (Q16586 24-387 V247M): T1 sequence (Q16586 24-387 R98H) with H75R, V224M
Experimental: The cellular localization of either the V247M or R98H mutants, upon corrector treatments, has been verified by confocal immunofluorescence.
In the experiment reported in FIG. 2, HEK 293 cells expressing the V247M mutant have been treated for 24 hours with either Compound E (10 μM) or Compound D (10 μM), MG132 (positive control) or DMSO at 1‰ concentration (negative control). At the end of treatments, not permeabilized cells were incubated with a monoclonal antibody specific for an extracellular epitope of α-sarcoglycan in order to mark only the membrane resident α-sarcoglycan. By comparison, cells expressing the wild type form of α-sarcoglycan have also been used.

SMILES | alpha-sarcoglycan protein level (western blot, densitometry), rescue of R98H mutant [1] | SERCA1 protein level (western blot, densitometry), rescue of R164H mutant (R164H mutant of SERCA1) | cardiac arrhythmia developed as consequence of CASQ2 mutant degradation (D307H CASQ2 mutant) | partial rescue of the mutant CASQ2, increase over not treated mice (D307H CASQ2 mutant) [%] | plasma membrane localization of V247M alpha-sarcoglycan mutant [2]
CC(c1nc(N2CCCCC2)c2ccccc2n1)N1CCN(S(=O)(=O)c2ccc(Cl)cc2)CC1 (stereo not shown) [Compound C, 2-{1-[4-(4-Chloro-benzensulfonyl)-piperazin-1-yl]ethyl}-4-piperidin-1-yl-quinazoline] | promote the rescue | promote the rescue | – | – | –
COc1ccc(S(=O)(=O)N2CCN(C(C)c3nc(OC4CCCCC4)c4ccccc4n3)CC2)cc1 (stereo not shown) [Compound B, 4-Cyclohexyloxy-2-{1-[4-(4-methoxy-benzensulfonyl)-piperazin-1-yl]-ethyl}-quinazoline] | promote the rescue | promote the rescue | – | – | –
CC(C)C[C@H](NC(=O)[C@H](Cc1ccccc1)NC(=O)c1cnccn1)B(O)O [Velcade, bortezomib] | – | – | can be counteracted | 20 | –
CC(C)C[C@@H](C=O)NC(=O)[C@H](CC(C)C)NC(=O)[C@H](CC(C)C)NC(=O)OCc1ccccc1 [MG132, reference compound] (Cbz-Leu-Leu-Leu-aldehyde) | – | – | – | – | promoted V247M membrane localization
O=C(Nc1ncc(C(c2ccccc2Cl)N2CC[C@@H](O)C2)s1)C1(c2ccc3c(c2)OCO3)CC1 (stereo in doubt) [Compound D, 1-(benzo[d][1,3]dioxol-5-yl)-N-(5-((S)-(2-chlorophenyl) ((R)-3-hydroxypyrrolidin-1-yl)methyl)thiazol-2-yl)cyclopropanecarboxamide] | promote the rescue | promote the rescue | – | – | promoted the correct plasma membrane localization
